{"source": "patent US7713979B2", "about": "“Cycloalkyl lactam derivatives as inhibitors of 11-beta-hydroxysteroid dehydrogenase 1” (Eli Lilly and Company, priority 2004, dated 2010)", "data": [{"test_system": "cortisone to cortisol conversion (11β-HSD type 1)", "assay": "Acute In Vivo Cortisone Conversion Assay", "settings": "mice dosed orally, subcutaneous cortisone challenge 30 mg/kg, serum cortisol by LC-MS/MS", "protocol": "Acute In Vivo Cortisone Conversion Assay\nIn general, compounds are dosed orally into mice, the mice are challenged with a subcutaneous injection of cortisone at a set timepoint after compound injection, and the blood of each animal is collected some time later. Separated serum is then isolated and analyzed for levels of cortisone and cortisol by LC-MS/MS, followed by calculation of mean cortisol and percent inhibition of each dosing group. Specifically, male C57BL/6 mice are obtained from Harlan Sprague Dawley at average weight of 25 grams. Exact weights are taken upon arrival and the mice randomized into groups of similar weights. Compounds are prepared in 1% w-w HEC, 0.25% w-w polysorbate 80, 0.05% w-w Dow Coming antifoam #1510-US at various doses based on assumed average weight of 25 grams. Compounds are dosed orally, 200 μl per animal, followed by a subcutaneous dose, 200 μl per animal, of 30 mg/kg cortisone at 1 to 24 hours post compound dose. At 10 minutes post cortisone challenge, each animal is euthanized for 1 minute in a CO2 chamber, followed by blood collection via cardiac puncture into serum separator tubes. Once fully clotted, tubes are spun at 2500×g, 4° C. for 15 minutes, the serum transferred to wells of 96-well plates (Coming Inc, Costar #4410, cluster tubes, 1.2 ml, polypropylene), and the plates are frozen at −20° C. until analysis by LC-MS/MS. For analysis, serum samples are thawed and the proteins are precipitated by the addition of acetonitrile containing d4-cortisol internal standard. Samples are vortex mixed and centrifuged. The supernatant is removed and dried under a stream of warm nitrogen. Extracts are reconstituted in methanol/water (1:1) and injected onto the LC-MS/MS system. The levels of cortisone and cortisol are assayed by selective reaction monitoring mode following positive ACPI ionization on a triple quadrupole mass spectrophotometer. […] Examples 91, 135, 119, 15, and 99 were active in the Acute In Vivo Cortisone Conversion Assay.", "values": [{"smiles": "O=C1C(Cc2ccc(Cl)cc2Cl)CCN1[C@H]1CC[C@H](O)CC1", "note": "(relative stereo) [Example 15, 3-(2,4-Dichloro-benzyl)-1-(trans-4-hydroxy-cyclohexyl)-pyrrolidin-2-one]", "activity in the Acute In Vivo Cortisone Conversion Assay": "active"}, {"smiles": "CC1CCCCC1N1CCC(Cc2c(F)cccc2Cl)C1=O", "note": "(centres unmarked) [Example 65]", "activity in the Acute In Vivo Cortisone Conversion Assay": "inactive"}, {"smiles": "COc1ccc(Cl)c(CC2CCN(C3CCCCC3)C2=O)c1Cl", "note": "(centres unmarked) [Example 69]", "activity in the Acute In Vivo Cortisone Conversion Assay": "inactive"}, {"smiles": "Cl.O=C1C(Cc2ccc(-c3ccncc3)cc2Cl)CCN1C1CCCCC1", "note": "(centres unmarked) [Example 91]", "activity in the Acute In Vivo Cortisone Conversion Assay": "active"}, {"smiles": "CC1CCCCC1N1CCC(Cc2ccc(-c3cccnc3)cc2Cl)C1=O", "note": "(centres unmarked) [Example 99]", "activity in the Acute In Vivo Cortisone Conversion Assay": "active"}, {"smiles": "CC1CCCCC1N1CCC(Cc2c(Cl)cc(-c3ccncc3)cc2Cl)C1=O.Cl", "note": "(centres unmarked) [Example 119]", "activity in the Acute In Vivo Cortisone Conversion Assay": "active"}, {"smiles": "O=C1C(Cc2c(Cl)cc(Cl)cc2Cl)CCN1C1CCC(O)CC1", "note": "(centres unmarked) [Example 135]", "activity in the Acute In Vivo Cortisone Conversion Assay": "active"}]}, {"target": "recombinant human 11β-HSD type 1 enzyme (Homo sapiens, UniProt P28845)", "sequence (P28845 whole entry)": "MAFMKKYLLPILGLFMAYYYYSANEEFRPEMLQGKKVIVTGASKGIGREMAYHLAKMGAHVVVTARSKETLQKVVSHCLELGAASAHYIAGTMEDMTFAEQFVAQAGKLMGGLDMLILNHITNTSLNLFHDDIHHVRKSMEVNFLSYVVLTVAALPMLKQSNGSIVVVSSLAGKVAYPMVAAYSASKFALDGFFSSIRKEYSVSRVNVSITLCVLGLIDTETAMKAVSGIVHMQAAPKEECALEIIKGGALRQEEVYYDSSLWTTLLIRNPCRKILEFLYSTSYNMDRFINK", "assay": "11β-HSD type 1 enzyme assay (NADPH fluorescence)", "format": "biochemical", "settings": "three hour incubation at room temperature", "protocol": "11β-HSD Type 1 Enzyme Assay Human 11β-HSD type 1 activity is measured by assaying NADPH production by fluorescence assay. Solid compounds are dissolved in DMSO to a concentration of 10 mM. Twenty microliters of each are then transferred to a column of a 96-well polypropylene Nunc plate where they are further diluted 50-fold followed by subsequent two-fold titration, ten times across the plate with additional DMSO using a Tecan Genesis 200 automated system. Plates are then transferred to a Tecan Freedom 200 system with an attached Tecan Temo 96-well head and an Ultra 384 plate reader. Reagents are supplied in 96-well polypropylene Nunc plates and are dispensed individually into black 96-well Molecular Devices High Efficiency assay plates (40 μL/well capacity) in the following fashion: 9 μL/well of substrate (2.22 mM NADP, 55.5 μM […], 10 mM Tris, 0.25% Prionex, 0.1% Triton X100), 3 μL/well of water to compound wells or 3 μL to control and standard wells, 6 μL/well recombinant human 11β-HSD type 1 enzyme, 2 μL/well of compound dilutions. For ultimate calculation of percent inhibition, a series of wells are added that represent assay minimum and maximum: one set containing substrate with 667 μM carbenoxolone (background), and another set containing substrate and enzyme without compound (maximum signal). Final DMSO concentration is 0.5% for all compounds, controls and standards. Plates are then placed on a shaker by the robotic arm of the Tecan for 15 seconds before being covered and stacked for a three hour incubation period at room temperature. Upon completion of this incubation, the Tecan robotic arm removes each plate individually from the stacker and places them in position for addition of 5 μL/well of a 250 μM carbenoxolone solution to stop the enzymatic reaction. Plates are then shaken once more for 15 seconds then placed into an Ultra 384 microplate reader (355EX/460EM) for detection of NADPH fluorescence.", "units": {"IC50": "nM"}, "values": [{"smiles": "O=C1C(Cc2ccc(-c3ccncc3)cc2Cl)CCN1C1CCCCC1", "note": "(centres unmarked)", "IC50": 384}, {"smiles": "CC1CCCCC1N1CCC(Cc2c(Cl)cc(-c3ccncc3)cc2Cl)C1=O", "note": "(centres unmarked)", "IC50": 565}, {"smiles": "O=C1C(Cc2ccc(Cl)cc2Cl)CCN1C1CCC(O)CC1", "note": "(centres unmarked)", "IC50": 378}, {"smiles": "O=C1C(Cc2ccc(-c3cccnc3)cc2Cl)CCCN1C1CCCCC1", "note": "(centres unmarked)", "IC50": 494}, {"smiles": "O=C1C(Cc2c(F)cccc2Cl)CCCN1C1CCCCC1", "note": "(centres unmarked)", "IC50": 879}, {"smiles": "O=C1C(Cc2c(Cl)cc(Cl)cc2Cl)CCN1C1CCC(O)CC1", "note": "(centres unmarked) [drawing 379]", "IC50": 230}, {"smiles": "CC1CCCCC1N1CCC(Cc2ccc(-c3cccnc3)cc2Cl)C1=O", "note": "(centres unmarked) [drawing 383]", "IC50": 273}]}]}
